# Data published in patent publication US20250213597A1, “AGENT FOR INDUCING PROLIFERATION OR DIFFERENTIATION OF CHONDROCYTE” (TOHOKU UNIVERSITY, priority 2022, published 2025).
# Tested on: ATDC5 cells
# Assay: Proliferation test of ATDC5 cells
# Type: cell-based
# Experimental: ATDC5 cells were cultured at a cell density of 5×10^5 cells/35 mm dish. As the culture solution, DMEM-Ham's F12 medium containing 5% FBS and 1% Pen/Strep was used. Adjustment was conducted to final concentrations of MPMBP of 10 μM (M10) and 100 μM (M100), clodronate of 10 μM (C10) and 100 μM (C100), zoledronate of 10 μM (Z10) and 100 μM (Z100) and a control (Vehicle), and the cells were cultured under the conditions of 5% CO2 at 37° C. The medium was changed every three days.
SMILES,"number of cells (third day of culture, 10 μM)","number of cells (third day of culture, 100 μM)","number of cells (sixth day of culture, 10 μM)","number of cells (sixth day of culture, 100 μM)"
O=P(O)(O)C(Cl)(Cl)P(=O)(O)O [clodronate],increased,increased,–,–
O=P(O)(O)C(O)(Cn1ccnc1)P(=O)(O)O [zoledronate],decreased,decreased,decreased significantly,decreased significantly
